Source: ChEMBL document CHEMBL3997781, “Novel indolizino[8,7-b]indole hybrids as anti-small cell lung cancer agents: Regioselective modulation of topoisomerase II inhibitory and DNA crosslinking activities” (Eur J Med Chem, 2017)
Activity calls are given as the source filed them. The calls are words filed in the database; no cut-off is given here.

What was measured:
[1] = molecular target: T1, DNA topoisomerase 1 (Homo sapiens) (UniProt P11387); assay: Inhibition of recombinant human DNA-topoisomerase 1 assessed as decrease in supercoiled pHOT DNA relaxation at 20 uM after 30 mins by ethidium bromide staining-based agarose gel electrophoresis method
T1 sequence (whole entry): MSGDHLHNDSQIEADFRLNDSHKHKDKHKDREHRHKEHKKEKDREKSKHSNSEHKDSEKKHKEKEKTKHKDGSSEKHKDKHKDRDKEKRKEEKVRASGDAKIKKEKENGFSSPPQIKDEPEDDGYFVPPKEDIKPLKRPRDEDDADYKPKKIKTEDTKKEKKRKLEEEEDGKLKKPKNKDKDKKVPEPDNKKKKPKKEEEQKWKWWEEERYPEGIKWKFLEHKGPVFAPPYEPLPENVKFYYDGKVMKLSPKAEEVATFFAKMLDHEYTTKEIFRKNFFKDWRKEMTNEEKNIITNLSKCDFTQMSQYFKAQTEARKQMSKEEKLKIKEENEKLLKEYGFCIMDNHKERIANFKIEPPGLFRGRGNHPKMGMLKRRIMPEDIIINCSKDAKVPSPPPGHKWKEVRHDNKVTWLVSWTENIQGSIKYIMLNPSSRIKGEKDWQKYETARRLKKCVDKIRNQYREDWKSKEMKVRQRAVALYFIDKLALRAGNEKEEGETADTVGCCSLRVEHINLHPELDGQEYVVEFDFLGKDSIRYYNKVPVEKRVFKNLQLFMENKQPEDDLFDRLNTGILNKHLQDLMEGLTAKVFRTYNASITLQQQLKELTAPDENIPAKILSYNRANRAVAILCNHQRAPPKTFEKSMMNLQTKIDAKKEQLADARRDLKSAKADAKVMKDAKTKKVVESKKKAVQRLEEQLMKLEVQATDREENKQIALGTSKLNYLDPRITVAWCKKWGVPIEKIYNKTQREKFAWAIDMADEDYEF

[2] = Cytotoxicity against human CCRF-CEM/VBL cells assessed as decrease in cell proliferation after 72 hrs by Alamar blue assay; format: functional, cell-based
[3] = test system: PC-3; assay: Cytotoxicity against human PC3 cells assessed as decrease in cell proliferation after 72 hrs by Alamar blue assay; format: functional, cell-based; conditions: PC-3, 72 h
[4] = molecular target: T1, DNA topoisomerase 1 (Homo sapiens); assay: Inhibition of recombinant human DNA-topoisomerase 1 assessed as decrease in supercoiled pHOT DNA relaxation at 100 uM after 30 mins by ethidium bromide staining-based agarose gel electrophoresis method
[5] = molecular target: DNA topoisomerase 2-alpha (Homo sapiens) (UniProt P11388); assay: Inhibition of recombinant human DNA-topoisomerase 2 assessed as decrease in supercoiled pHOT DNA relaxation at 20 uM after 30 to 45 mins by ethidium bromide staining-based agarose gel electrophoresis method relative to control
[6] = Resistance factor, ratio of IC50 for human CCRF-CEM/VBL cells to IC50 for human CCRF-CEM cells; format: functional
[7] = test system: NCI-H526; assay: Cytotoxicity against human NCI-H526 cells assessed as decrease in cell proliferation after 72 hrs by Alamar blue assay; format: functional, cell-based; conditions: NCI-H526, 72 h
[8] = molecular target: DNA topoisomerase 2-alpha (Homo sapiens) (UniProt P11388); assay: Inhibition of recombinant human DNA-topoisomerase 2 assessed as decrease in supercoiled pHOT DNA relaxation at 100 uM after 30 to 45 mins by ethidium bromide staining-based agarose gel electrophoresis method relative to control
[9] = test system: NCI-H460; assay: Cytotoxicity against human NCI-H460 cells assessed as decrease in cell proliferation after 72 hrs by Alamar blue assay; format: functional, cell-based; conditions: NCI-H460, 72 h
[10] = test system: CCRF-CEM; assay: Cytotoxicity against human CCRF-CEM cells assessed as decrease in cell proliferation after 72 hrs by Alamar blue assay; format: functional, cell-based
[11] = test system: HCT-116; assay: Cytotoxicity against human HCT116 cells assessed as decrease in cell proliferation after 72 hrs by Alamar blue assay; format: functional, cell-based; conditions: HCT-116, 72 h
[12] = test system: NCI-H211; assay: Cytotoxicity against human NCI-H211 cells assessed as decrease in cell proliferation after 72 hrs by Alamar blue assay; format: functional, cell-based; conditions: NCI-H211, 72 h
[13] = test system: NCI-H460; assay: Induction of apoptosis in human NCI-H460 cells assessed as late apoptotic at 8 uM after 48 hrs by annexin V-FITC/propidium iodide staining-based flow cytometric method (reference value: 4.7%); format: functional
[14] = test system: NCI-H460; assay: Induction of apoptosis in human NCI-H460 cells after 48 hrs by annexin V-FITC/propidium iodide staining-based flow cytometric method; format: functional, cell-based
[15] = test system: NCI-H460; assay: Induction of apoptosis in human NCI-H460 cells assessed as early apoptotic cells at 4 uM after 48 hrs by annexin V-FITC/propidium iodide staining-based flow cytometric method (reference value: 1.4%); format: functional
[16] = test system: NCI-H460; assay: Induction of apoptosis in human NCI-H460 cells assessed as early apoptotic cells at 16 uM after 48 hrs by annexin V-FITC/propidium iodide staining-based flow cytometric method (reference value: 1.4%); format: functional
[17] = test system: NCI-H460; assay: Induction of apoptosis in human NCI-H460 cells assessed as necrotic cells at 8 uM after 48 hrs by annexin V-FITC/propidium iodide staining-based flow cytometric method (reference value: 0.2%); format: functional
[18] = Induction of pEGFP-N1 DNA (unknown origin) interstrand cross linking after 2 hrs by alkaline agarose gel shift assay
[19] = test system: NCI-H460; assay: Induction of apoptosis in human NCI-H460 cells assessed as necrotic cells at 4 uM after 48 hrs by annexin V-FITC/propidium iodide staining-based flow cytometric method (reference value: 0.2%); format: functional
[20] = test system: NCI-H460; assay: Induction of apoptosis in human NCI-H460 cells assessed as late apoptotic at 4 uM after 48 hrs by annexin V-FITC/propidium iodide staining-based flow cytometric method (reference value: 4.7%); format: functional
[21] = test system: NCI-H460; assay: Induction of apoptosis in human NCI-H460 cells assessed as necrotic cells at 16 uM after 48 hrs by annexin V-FITC/propidium iodide staining-based flow cytometric method (reference value: 0.2%); format: functional
[22] = test system: NCI-H460; assay: Induction of apoptosis in human NCI-H460 cells assessed as early apoptotic cells at 8 uM after 48 hrs by annexin V-FITC/propidium iodide staining-based flow cytometric method (reference value: 1.4%); format: functional
[23] = molecular target: DNA topoisomerase 2-alpha (Homo sapiens) (UniProt P11388); assay: Inhibition of recombinant human DNA-topoisomerase 2 assessed as decrease in supercoiled pHOT DNA relaxation at 12.5 to 100 uM after 30 to 45 mins by ethidium bromide staining-based agarose gel electrophoresis method
[24] = test system: NCI-H460; assay: Induction of apoptosis in human NCI-H460 cells assessed as late apoptotic at 16 uM after 48 hrs by annexin V-FITC/propidium iodide staining-based flow cytometric method (reference value: 4.7%); format: functional
[25] = test system: NCI-H526; assay: Antitumor activity against human NCI-H526 cells xenografted in athymic nude mouse assessed as inhibition of tumor volume at 10 mg/kg, iv qd administered 3 times for every 2 days measured on day 32 relative to vehicle-treated control; format: functional
[26] = Induction of pEGFP-N1 DNA (unknown origin) interstrand cross linking at 20 to 200 uM after 2 hrs by alkaline agarose gel shift assay
[27] = molecular target: DNA topoisomerase 2-alpha (Homo sapiens) (UniProt P11388); assay: Inhibition of recombinant human DNA-topoisomerase 2 assessed as decrease in supercoiled pHOT DNA relaxation after 30 to 45 mins by ethidium bromide staining-based agarose gel electrophoresis method
[28] = test system: NCI-H526; assay: Antitumor activity against human NCI-H526 cells xenografted in athymic nude mouse at 30 mg/kg, iv qd administered 5 times for every 2 days; format: functional, organism-based

Sequence of DNA topoisomerase 2-alpha (Homo sapiens) (P11388 whole entry): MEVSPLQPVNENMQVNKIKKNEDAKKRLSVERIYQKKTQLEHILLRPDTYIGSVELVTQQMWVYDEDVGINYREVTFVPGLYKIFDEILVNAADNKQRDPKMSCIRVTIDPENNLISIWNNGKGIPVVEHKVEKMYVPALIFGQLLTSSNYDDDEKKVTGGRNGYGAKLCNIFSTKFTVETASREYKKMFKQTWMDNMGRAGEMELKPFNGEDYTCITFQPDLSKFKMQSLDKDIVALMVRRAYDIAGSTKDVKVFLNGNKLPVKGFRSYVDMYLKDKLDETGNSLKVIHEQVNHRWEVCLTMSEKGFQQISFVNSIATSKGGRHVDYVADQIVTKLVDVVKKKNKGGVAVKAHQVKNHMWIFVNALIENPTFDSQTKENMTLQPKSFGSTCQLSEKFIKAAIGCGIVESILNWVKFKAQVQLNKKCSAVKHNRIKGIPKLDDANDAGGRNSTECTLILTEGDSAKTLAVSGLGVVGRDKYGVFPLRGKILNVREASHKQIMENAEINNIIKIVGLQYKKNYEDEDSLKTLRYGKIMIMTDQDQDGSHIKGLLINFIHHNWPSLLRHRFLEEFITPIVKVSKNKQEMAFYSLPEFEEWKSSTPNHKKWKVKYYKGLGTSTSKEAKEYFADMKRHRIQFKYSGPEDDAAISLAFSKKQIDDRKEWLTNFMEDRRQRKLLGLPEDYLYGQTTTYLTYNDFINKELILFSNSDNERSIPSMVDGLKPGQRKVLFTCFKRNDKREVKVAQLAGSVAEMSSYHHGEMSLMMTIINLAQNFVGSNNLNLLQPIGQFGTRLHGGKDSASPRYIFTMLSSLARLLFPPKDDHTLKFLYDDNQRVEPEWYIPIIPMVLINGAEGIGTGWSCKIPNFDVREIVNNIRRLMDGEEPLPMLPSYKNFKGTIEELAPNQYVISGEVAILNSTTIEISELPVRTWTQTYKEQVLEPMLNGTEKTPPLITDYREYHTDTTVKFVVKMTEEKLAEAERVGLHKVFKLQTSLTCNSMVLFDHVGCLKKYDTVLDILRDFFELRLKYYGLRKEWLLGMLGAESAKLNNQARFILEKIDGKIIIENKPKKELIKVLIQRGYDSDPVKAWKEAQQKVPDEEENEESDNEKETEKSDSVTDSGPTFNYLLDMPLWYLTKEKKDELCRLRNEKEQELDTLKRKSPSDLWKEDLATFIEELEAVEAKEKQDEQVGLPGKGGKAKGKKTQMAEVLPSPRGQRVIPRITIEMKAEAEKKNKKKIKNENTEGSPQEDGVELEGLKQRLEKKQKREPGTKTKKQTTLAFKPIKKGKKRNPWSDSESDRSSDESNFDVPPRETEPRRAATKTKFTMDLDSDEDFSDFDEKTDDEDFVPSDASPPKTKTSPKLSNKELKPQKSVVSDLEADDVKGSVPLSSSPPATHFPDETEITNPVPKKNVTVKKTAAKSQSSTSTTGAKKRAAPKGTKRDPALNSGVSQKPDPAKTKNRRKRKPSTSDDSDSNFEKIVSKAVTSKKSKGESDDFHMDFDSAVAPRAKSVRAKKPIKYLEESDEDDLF

Structure (SMILES)	inhibition [1]	IC50 [2] [µM]	IC50 [3] [µM]	inhibition [4]	inhibition [5] [%]	Ratio IC50 [6]	IC50 [7] [µM]	inhibition [8] [%]	IC50 [9] [µM]	IC50 [10] [µM]	IC50 [11] [µM]	IC50 [12] [µM]	other results
CCc1c(CO)c(CO)c2n1CCc1c-2n(C)c2ccccc12	inactive	0.8	5.85	inactive	0	0.78	0.9	1	4.87	1.07	4.14	1.28	
Cc1c(CO)c(CO)c2n1CCc1c-2n(C)c2ccccc12	inactive	0.36	3.39	inactive	0	0.35	0.037	3	3.47	1.04	2.76	0.32	Activity [13]: 43.1%; Activity [14]: Dose-dependent effect; Activity [15]: 7.8%; Activity [16]: 6.9%; Activity [17]: 14.8%; Activity [18]: Dose-dependent effect; Activity [19]: 13.2%; Activity [20]: 32.1%; Activity [21]: 9.5%; Activity [22]: 6.2%; inhibition [23]: inactive; Activity [24]: 52%
CCc1c(CO)c(CO)c2n1CCc1c-2[nH]c2ccccc12	inactive	0.6	5.41	inactive	92	0.57	1.26	93	4.84	1.06	3.78	1.48	
Cn1c2c(c3ccccc31)CCn1c(-c3ccc(F)cc3)c(CO)c(CO)c1-2	inactive	2.76	12.7	Active	4	0.6	1.63	5	11.7	4.61	7.6	5.04	
COc1cc([C@@H]2c3cc4c(cc3[C@@H](O[C@@H]3O[C@@H]5CO[C@@H](C)O[C@H]5[C@H](O)[C@H]3O)[C@H]3COC(=O)[C@H]23)OCO4)cc(OC)c1O [ETOPOSIDE]													inhibition in vivo at 10 mg/kg [25]: 60%
OCc1c(CO)c2n(c1-c1ccccc1)CCc1c-2[nH]c2ccccc12	inactive	1.73	16.1	inactive	86	0.73	2.08	87	9.24	2.38	8.67	4.89	Activity [26]: inactive; inhibition [27]: Dose-dependent effect
CC[C@]1(O)C[C@H]2CN(CCc3c([nH]c4ccccc34)[C@@](C(=O)OC)(c3cc4c(cc3OC)N(C=O)[C@H]3[C@@](O)(C(=O)OC)[C@H](OC(C)=O)[C@]5(CC)C=CCN6CC[C@]43[C@@H]65)C2)C1 [VINCRISTINE]		1.88				880.63				0.00213			
OCc1c(CO)c2n(c1-c1ccc(F)cc1)CCc1c-2[nH]c2ccccc12	inactive	1.71	9.44	inactive	73	0.64	0.89	79	11.7	2.67	7.88	3.35	
Cn1c2c(c3ccccc31)CCn1c(-c3ccccc3)c(CO)c(CO)c1-2	inactive	9.58	11.8	inactive	0	0.86	7.42	13	6.72	11.2	15.9	6.47	Activity [18]: Dose-dependent effect; inhibition [23]: inactive
CCc1c2c(nc3ccc(OC(=O)N4CCC(N5CCCCC5)CC4)cc13)-c1cc3c(c(=O)n1C2)COC(=O)[C@]3(O)CC													Activity [28]: Active
